Some test systems named below: CAKI-1 renal; HCT-116 colon; MDA-MB-231 breast; MDA-MB-435; MDA-N; MOLT-4 leukemia; NCI-H226 lung; NCI-H23 lung; NCI-H460 lung; NCI-H522 lung; NCI/ADR-RES ovarian; OVCAR-8 ovarian; SF-268 CNS; SK-MEL-5 melanoma; SR leukemia; SW-620 colon; TK-10 renal.
What all share (assay): NCI anticancer screen, dose series, 48 h

SMILES strings stand for the structures.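 In this assay, cells in 96-well plates receive the compound at five concentrations for 48 hours. Endpoints are linearly interpolated between the surrounding concentrations. TGI marks complete inhibition of growth.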

On to `Nc1nc(Cl)c(/C=N\O)c(NCC2(CO)CCC2)n1`, for which the TGI with CAKI-1 renal is above 100 µM; with HCT-116 colon it was above 100 µM; in the assay with MDA-MB-231 breast, above 100 µM; with MDA-MB-435, above 100 µM; with MDA-N, above 100 µM; with MOLT-4 leukemia, 81.2 µM. Besides, the TGI in the assay on NCI-H226 lung, in the assay on NCI-H23 lung, in the assay on NCI-H460 lung, in the assay with NCI-H522 lung, in the assay on NCI/ADR-RES ovarian and in the assay on OVCAR-8 ovarian was above 100 µM each time. The TGI in the assay on SF-268 CNS, in the assay on SK-MEL-5 melanoma, in the assay on SR leukemia, in the assay with SW-620 colon and in the assay with TK-10 renal was above 100 µM in each case.
As to `CCCCCCc1ccc(C(=O)NO)cc1`, the TGI with CAKI-1 renal is 84.3 µM; in the assay on HCT-116 colon, above 100 µM; in the assay on MDA-MB-231 breast, above 100 µM; with MDA-MB-435 it was above 100 µM; with MDA-N, above 100 µM; with MOLT-4 leukemia, 50 µM. Further, the TGI was above 100 µM with NCI-H226 lung; above 100 µM with NCI-H23 lung; 72.3 µM in the assay with NCI-H460 lung; 80.4 µM with NCI-H522 lung; 51.9 µM in the assay on NCI/ADR-RES ovarian; 35.6 µM in the assay with OVCAR-8 ovarian. For the same compound, the TGI is above 100 µM with SF-268 CNS; above 100 µM in the assay on SK-MEL-5 melanoma; 39.2 µM in the assay with SR leukemia; above 100 µM in the assay with SW-620 colon; above 100 µM with TK-10 renal.
`C=CCN1C(=O)/C(=C\c2cc(C(C)(C)C)c(O)c(C(C)(C)C)c2)NC1=S`: the TGI in the assay on CAKI-1 renal is 83.3 µM; in the assay with HCT-116 colon, 35.4 µM; in the assay on MDA-MB-231 breast it was 34.9 µM; in the assay on MDA-MB-435, 70.8 µM; with MDA-N it was above 100 µM; in the assay on MOLT-4 leukemia, above 100 µM. Moreover, the TGI is 74.9 µM with NCI-H226 lung; 94 µM with NCI-H23 lung; 36.8 µM in the assay on NCI-H460 lung; 27.8 µM in the assay with NCI-H522 lung; above 100 µM in the assay with NCI/ADR-RES ovarian; above 100 µM in the assay with OVCAR-8 ovarian. The TGI in the assay with SF-268 CNS is above 100 µM; with SK-MEL-5 melanoma it was 30.1 µM; in the assay with SR leukemia, above 100 µM; in the assay with SW-620 colon, above 100 µM; in the assay on TK-10 renal, 73.9 µM.
Consider `O=C1c2ccccc2CN1c1ccc(OCCN2CCCCC2)cc1`, for which the TGI in the assay on CAKI-1 renal, in the assay on HCT-116 colon, in the assay on MDA-MB-231 breast, in the assay on MDA-MB-435, in the assay with MDA-N and in the assay with MOLT-4 leukemia was above 10 µM each time. The TGI with NCI-H226 lung, in the assay on NCI-H23 lung, in the assay on NCI-H460 lung, in the assay with NCI-H522 lung, in the assay with NCI/ADR-RES ovarian and with OVCAR-8 ovarian was above 10 µM each time. In addition, the TGI in the assay with SF-268 CNS, in the assay with SK-MEL-5 melanoma, in the assay with SR leukemia, with SW-620 colon and with TK-10 renal was above 10 µM in each case.
In the case of `CC(NO)/C(=N/O)c1ccco1` (centres undefined), the TGI in the assay on CAKI-1 renal, with HCT-116 colon, in the assay with MDA-MB-231 breast, in the assay on MDA-MB-435, in the assay on MDA-N and in the assay on MOLT-4 leukemia was above 10 µM each time. Also, the TGI in the assay with NCI-H226 lung, with NCI-H23 lung, with NCI-H460 lung, in the assay on NCI-H522 lung, in the assay on NCI/ADR-RES ovarian and in the assay with OVCAR-8 ovarian was above 10 µM throughout. The TGI with SF-268 CNS, in the assay with SR leukemia, in the assay with SW-620 colon and in the assay on TK-10 renal was above 10 µM each time.
As for `CN(C)CCCn1c(Cc2ccc(Cl)cc2)nc2cc(C(F)(F)F)ccc21`, the TGI in the assay on CAKI-1 renal came to 27.3 µM; with HCT-116 colon, 25 µM; in the assay on MDA-MB-231 breast, 26.5 µM; in the assay on MDA-MB-435 it was 26.6 µM; in the assay on MDA-N it was 25.4 µM; in the assay with MOLT-4 leukemia, 34.5 µM. For the same compound, the TGI in the assay on NCI-H226 lung came to 36.4 µM; with NCI-H23 lung, 31.4 µM; in the assay on NCI-H460 lung it was 26 µM; in the assay on NCI-H522 lung, 28.1 µM; in the assay with NCI/ADR-RES ovarian, 33.6 µM; in the assay with OVCAR-8 ovarian, 33.4 µM. Also, the TGI in the assay on SF-268 CNS was 29.1 µM; with SK-MEL-5 melanoma, 32.5 µM; with SR leukemia, above 100 µM; in the assay with SW-620 colon, above 57.8 µM; in the assay on TK-10 renal, 29.6 µM.
On to `O=C1c2ccccc2C(=O)N1CC1S(=O)(=O)OCCOS1(=O)=O`, for which the TGI in the assay with CAKI-1 renal, with HCT-116 colon, in the assay with MDA-MB-231 breast, with MDA-MB-435, in the assay with MDA-N and in the assay with MOLT-4 leukemia was above 100 µM in each case. Moreover, the TGI in the assay with NCI-H226 lung, in the assay on NCI-H23 lung, in the assay with NCI-H460 lung, in the assay with NCI-H522 lung, in the assay with NCI/ADR-RES ovarian and in the assay on OVCAR-8 ovarian was above 100 µM each time. For the same compound, the TGI in the assay on SF-268 CNS, in the assay with SK-MEL-5 melanoma, in the assay on SR leukemia, in the assay with SW-620 colon and in the assay with TK-10 renal was above 100 µM in each case.
With `CCN(CC)c1ccc2cc(C(N)=S)c(=N)oc2c1`, the TGI in the assay with CAKI-1 renal, in the assay on HCT-116 colon, with MDA-MB-231 breast, in the assay with MDA-MB-435, in the assay with MDA-N and in the assay with MOLT-4 leukemia was above 100 µM each time. Also, the TGI with NCI-H226 lung, in the assay with NCI-H460 lung, with NCI-H522 lung, with NCI/ADR-RES ovarian, in the assay on OVCAR-8 ovarian and in the assay with SF-268 CNS was above 100 µM in each case. For the same compound, the TGI in the assay on SK-MEL-5 melanoma, in the assay with SR leukemia, in the assay with SW-620 colon and with TK-10 renal was above 100 µM in each case.

The values are drawn from PubChem BioAssay (NCI).
